Assay results as given in patent US9045482B2, “Pyrido[4,3-B]indoles and methods of use” (Medivation Technologies, Inc., priority 2009, dated 2015).

Columns and labels:
[1] = target: T1, human recombinant adrenergic α2C receptor (Homo sapiens, UniProt P18825); experiment: Adrenergic α2C radioligand binding ([3H]MK-912); settings: 0.1 μM ligand conc.
T1 construct: expressed in transfected cells; host or cells: insect Sf9 cells
T1 sequence (P18825 1-462): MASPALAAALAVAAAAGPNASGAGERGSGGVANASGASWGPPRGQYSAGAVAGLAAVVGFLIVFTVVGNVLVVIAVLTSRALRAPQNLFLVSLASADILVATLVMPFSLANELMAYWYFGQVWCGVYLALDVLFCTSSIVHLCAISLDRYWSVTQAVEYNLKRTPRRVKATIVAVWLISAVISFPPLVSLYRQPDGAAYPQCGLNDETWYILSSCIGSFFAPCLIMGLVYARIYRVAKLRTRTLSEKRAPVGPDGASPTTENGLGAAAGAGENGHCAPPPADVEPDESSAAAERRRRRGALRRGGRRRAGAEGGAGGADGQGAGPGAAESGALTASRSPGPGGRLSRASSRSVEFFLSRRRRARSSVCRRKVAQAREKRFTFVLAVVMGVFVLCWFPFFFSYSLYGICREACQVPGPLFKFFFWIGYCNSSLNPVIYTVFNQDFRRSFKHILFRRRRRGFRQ
Description: To evaluate in radioligand binding assays the activity of compounds of the invention, human recombinant adrenergic α2C receptor expressed in insect Sf9 cells [Uhlen, S. et al., J. Pharmacol. Exp. Ther. 1994), 271:1558] in a modified Tris-HCl buffer (50 mM Tris-HCl, pH 7.4, 12.5 mM MgCl2, 2 mM EDTA) was used. Compounds of the invention were incubated with 1 nM [^3H]MK-912 for 60 min at 25° C. Non-specific binding was estimated in the presence of 10 μM WB-4101. Receptor proteins were filtered and washed, the filters were then counted to determine [^3H]MK-912 specifically bound. Compounds were screened at 1 μM or lower, using 1% DMSO as vehicle. Compounds of the invention were tested in this biochemical assay. Biochemical assay results for representative compounds were presented as the percent inhibition of specific binding in Table 3.

[2] = target: human recombinant histamine H1 receptor (Homo sapiens, UniProt P35367); experiment: Histamine H1 radioligand binding ([3H]Pyrilamine); settings: read-out: Binding data (Percentage Inhibition) Histamine Binding H1
Description: To evaluate in radioligand binding assays the activity of compounds of the invention, human recombinant histamine H1 receptor expressed in Chinese hamster ovary (CHO) cells [De Backer, M. et al., Biochem. Biophys. Res. Comm. (1993), 197(3):1601] in a modified Tris-HCl buffer (50 mM Tris-HCl, pH 7.4, 2 mM MgCl2, 100 mM NaCl, 250 mM Sucrose) was used. Compounds of the invention were incubated with 1.2 nM [^3H]Pyrilamine for 180 min at 25° C. Non-specific binding was estimated in the presence of 1 μM pyrilamine. Receptor proteins were filtered and washed, the filters were then counted to determine [^3H]Pyrilamine specifically bound. Compounds were screened at 1 μM or lower, using 1% DMSO as vehicle. Biochemical assay results are presented as the percent inhibition of specific binding in Table 2.

[3] = target: T2, rat adrenergic α1A receptor (Rattus norvegicus, UniProt P43140); experiment: Adrenergic α1A radioligand binding ([3H]Prozosin); parameters: species or system Wistar Rat; settings: 0.1 μM ligand conc.
T2 construct: rat adrenergic α1A receptor obtained from Wistar Rat submaxillary glands; from tissue; host or cells: Wistar Rat submaxillary glands
T2 sequence (P43140 1-466): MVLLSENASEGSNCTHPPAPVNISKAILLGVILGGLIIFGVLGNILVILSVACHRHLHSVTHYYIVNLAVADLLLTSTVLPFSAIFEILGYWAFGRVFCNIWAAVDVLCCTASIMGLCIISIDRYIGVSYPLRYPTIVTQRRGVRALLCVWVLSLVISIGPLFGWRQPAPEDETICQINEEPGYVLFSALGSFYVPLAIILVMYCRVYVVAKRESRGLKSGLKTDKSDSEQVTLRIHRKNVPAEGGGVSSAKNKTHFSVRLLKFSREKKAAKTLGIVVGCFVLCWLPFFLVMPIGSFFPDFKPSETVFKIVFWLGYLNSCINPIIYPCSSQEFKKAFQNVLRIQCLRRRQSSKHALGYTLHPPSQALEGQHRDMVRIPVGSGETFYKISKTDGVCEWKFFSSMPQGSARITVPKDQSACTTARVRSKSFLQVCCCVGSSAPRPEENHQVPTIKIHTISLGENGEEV
Description: To evaluate in radioligand binding assays the activity of compounds of the invention, rat adrenergic α1A receptor obtained from Wistar Rat submaxillary glands [Michel, A. D. et al., Br. J. Pharmacol. (1989), 98:883] in a modified Tris-HCl buffer (50 mM Tris-HCl buffer, pH 7.4, 0.5 mM EDTA) was used. Compounds of the invention were incubated with 0.25 nM [^3H]Prozosin for 60 min at 25° C. Non-specific binding was estimated in the presence of 10 μM phentolamine. Receptor proteins were filtered and washed, the filters were then counted to determine [^3H]Prozosin specifically bound. Compounds of the invention were screened at 1 μM or lower, using 1% DMSO as vehicle. Compounds of the invention were tested in this biochemical assay. Biochemical assay results for representative compounds were presented as the percent inhibition of specific binding in Table 3.

[4] = target: T3, human recombinant serotonin (5-Hydroxytryptamine) 5-HT2C receptor (Homo sapiens, UniProt P28335); experiment: Serotonin 5-HT2C radioligand binding ([3H]Mesulergine)
T3 construct: expressed in transfected cells; host or cells: Chinese hamster ovary (CHO-K1) cells
T3 sequence (P28335 33-458): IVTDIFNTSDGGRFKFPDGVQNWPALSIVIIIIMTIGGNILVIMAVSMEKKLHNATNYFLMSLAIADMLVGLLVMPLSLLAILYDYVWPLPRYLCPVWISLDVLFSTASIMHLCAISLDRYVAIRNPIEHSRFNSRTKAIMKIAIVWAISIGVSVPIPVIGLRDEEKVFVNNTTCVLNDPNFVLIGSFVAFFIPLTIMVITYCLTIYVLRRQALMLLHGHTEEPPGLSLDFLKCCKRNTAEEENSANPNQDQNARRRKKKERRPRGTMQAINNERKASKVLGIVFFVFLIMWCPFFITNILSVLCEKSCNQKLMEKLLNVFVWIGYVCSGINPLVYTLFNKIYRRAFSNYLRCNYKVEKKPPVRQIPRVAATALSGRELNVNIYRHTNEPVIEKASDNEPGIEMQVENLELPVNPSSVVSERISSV
Description: (1997), 69:1449] in a modified Tris-HCl buffer (50 mM Tris-HCl, pH 7.4, 0.1% Ascorbic Acid, 10 μM Pargyline) was used. Compounds of the invention were incubated with 1 nM [^3H]Mesulergine for 60 min at 25° C. Non-specific binding was estimated in the presence of 1 μM Mianserin. Receptor proteins were filtered and washed, the filters were then counted to determine [^3H]Mesulergine specifically bound. Compounds were screened at 1 μM or lower, using 1% DMSO as vehicle. Biochemical assay results are presented as the percent inhibition of specific binding in Table 4.

human recombinant histamine H1 receptor, sequence (P35367 whole entry): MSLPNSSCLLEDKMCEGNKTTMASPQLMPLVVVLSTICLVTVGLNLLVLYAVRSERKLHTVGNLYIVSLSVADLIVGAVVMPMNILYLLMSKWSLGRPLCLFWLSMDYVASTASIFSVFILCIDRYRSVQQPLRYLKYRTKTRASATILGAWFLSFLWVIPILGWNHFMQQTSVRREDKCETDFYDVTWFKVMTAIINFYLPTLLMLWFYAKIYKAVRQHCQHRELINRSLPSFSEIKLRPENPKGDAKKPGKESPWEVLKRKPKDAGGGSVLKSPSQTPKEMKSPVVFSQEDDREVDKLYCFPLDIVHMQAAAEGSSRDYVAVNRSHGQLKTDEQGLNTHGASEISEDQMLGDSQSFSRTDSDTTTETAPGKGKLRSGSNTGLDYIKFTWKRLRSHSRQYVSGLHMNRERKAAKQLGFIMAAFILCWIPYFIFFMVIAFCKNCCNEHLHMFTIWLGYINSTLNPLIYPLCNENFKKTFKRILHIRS

| Compound | Percent Inhibition of ligand binding Adrenergic α2C [1] | inhibition at 0.1 µM [2] | Percent Inhibition of ligand binding Adrenergic α1A [3] | Percent Inhibition of ligand binding Serotonin 5-HT2C ([4]; 0.1 μM ligand concentration) | inhibition at 1 µM [2] | Percent Inhibition of ligand binding Serotonin 5-HT2C ([4]; 1 μM ligand concentration) |
| --- | --- | --- | --- | --- | --- | --- |
| Cc1cnc2c(c1)c1c(n2CCc2ccc(C)nc2)CC2CCCN2C1 (centres unmarked) [Compound 36, 3-methyl-11-(2-(6-methylpyridin-3-yl)ethyl)-7,8,9,9a,10,11-hexahydro-5H-pyrido[3′,2′:4,5]pyrrolo[3,2-f]indolizine] | 3% | 96% | 26% | 19% |  |  |
| C/C(=C\n1c2c(c3cc(C)ccc31)C1CCCN1CC2)c1ccc(C)nc1 (centres unmarked) [Compound 32, (E)-10-methyl-7-(2-(6-methylpyridin-3-yl)prop-1-enyl)-2,3,5,6,7,11c-hexahydro-1H-indolizino[7,8-b]indole] | 45% | 1% | 55% | 26% |  |  |
| Cc1ccc(CCn2c3c(c4cccnc42)CN2CCCC2C3)cn1 (centres unmarked) [Compound 35, 11-(2-(6-methylpyridin-3-yl)ethyl)-7,8,9,9a,10,11-hexahydro-5H-pyrido[3′,2′:4,5]pyrrolo[3,2-f]indolizine] | 2% | 50% | −2% | 15% |  |  |
| Fc1ccc(CCn2c3c(c4cc(Cl)ccc42)CN2CCCC2C3)cc1 (centres unmarked) [Compound 2, 10-(4-fluorophenethyl)-7-chloro-2,3,5,10,11,11a-hexahydro-1H-indolizino[7,6-b]indole] |  |  |  |  | 9% | 53% |
| Cc1cnc2c(c1)c1c(n2CCc2ccc(C)nc2)CCN2CCCC12 (centres unmarked) [Compound 33, 10-methyl-7-(2-(6-methylpyridin-3-yl)ethyl)-2,3,5,6,7,1c-hexahydro-1H-pyrido[3′,2′:4,5]pyrrolo[2,3-g]indolizine] | 4% | 73% | 26% | 13% |  |  |
| Cc1ccc(CCn2c3c(c4cccnc42)C2CCCN2CC3)cn1 (centres unmarked) [Compound 34, 7-(2-(6-methylpyridin-3-yl)ethyl)-2,3,5,6,7,1c-hexahydro-1H-pyrido[3′,2′:4,5]pyrrolo[2,3-g]indolizine] | 1% | 22% | −9% | 7% |  |  |
| O=C(Cn1c2c(c3cccnc31)C1CCCN1CC2)N1CCCCC1 (centres unmarked) [Compound 38, 1-(piperidin-1-yl)-2-(2,3,5,6-tetrahydro-1H-pyrido[3′,2′:4,5]pyrrolo[2,3-g]indolizin-7(11cH)-yl)ethanone] | −6% | 5% | −6% | 16% |  |  |
| Fc1ccc(CCn2c3c(c4cc(Cl)ccc42)C2CCCN2CC3)cc1 (centres unmarked) [Compound 1, 7-(4-fluorophenethyl)-10-chloro-2,3,5,6,7,11c-hexahydro-1H-indolizino[7,8-b]indole] |  |  |  |  | -2% | 44% |
| O=C(Cn1c2c(c3cccnc31)CN1CCCC1C2)N1CCCCC1 (centres unmarked) [Compound 37, 1-(piperidin-1-yl)-2-(8,9,9a,10-tetrahydro-5H-pyrido[3′,2′:4,5]pyrrolo[3,2-f]indolizin-11(7H)-yl)ethanone] | 4% | 6% | −6% | 9% |  |  |
